As a reminder, the IC50 is the midpoint of a concentration-inhibition curve.

Structures are written as SMILES.

The first assay deals with T1, Recombinant human cathepsin A (Homo sapiens, UniProt P10619).
T1 construct: Recombinant human cathepsin A (residues 29-480, with a C-terminal 10-His tag); 10-His (C); purchased R&D Systems 1049-SE
T1 sequence (P10619 29-312 limits assumed): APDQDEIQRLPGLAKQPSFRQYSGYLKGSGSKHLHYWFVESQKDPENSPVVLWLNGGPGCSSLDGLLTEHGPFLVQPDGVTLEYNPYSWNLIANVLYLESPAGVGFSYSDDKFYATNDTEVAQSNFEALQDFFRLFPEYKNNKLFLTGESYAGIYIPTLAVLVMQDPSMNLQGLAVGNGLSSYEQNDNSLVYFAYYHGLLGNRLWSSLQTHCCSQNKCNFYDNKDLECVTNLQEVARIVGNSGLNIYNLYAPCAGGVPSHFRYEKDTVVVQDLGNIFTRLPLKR
T1 sequence (P10619 327-480 limits assumed): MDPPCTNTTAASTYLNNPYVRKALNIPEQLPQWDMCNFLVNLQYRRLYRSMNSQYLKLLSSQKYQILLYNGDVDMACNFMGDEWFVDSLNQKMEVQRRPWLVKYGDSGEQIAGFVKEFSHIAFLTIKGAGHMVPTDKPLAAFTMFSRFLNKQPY
Kind of assay: Cathepsin A inhibitory activity. Type of assay: biochemical. Conditions: pharmacological test "Cathepsin A inhibitory activity"; IC50 given as class A/B/C; read-out: Activity (2): Cathepsin A inhibitory activity, IC50 class. The gist of the method:
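Read-out was microfluidic separation of cleaved vs. uncleaved Bodipy FL-bradykinin (2 μM), giving turnover, % inhibition and IC50. Compound and 833 ng/ml enzyme met for 15 min RT in pH 5.5 MES/DTT before substrate (15 min RT). The 29-480 His-tagged human enzyme was first activated by cathepsin L, then E-64 (10 μM).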
As for `O=C(O)CC(NC(=O)c1cc(O)n(-c2ccccc2Cl)n1)c1cccc(C(F)(F)F)c1Cl` (centres unmarked) [Example 223], the IC50 lay in the range of 100 to 1000 nM.

As for `O=C(O)C[C@H](NC(=O)c1cc(O)n(-c2ccc(F)cc2F)n1)c1ccccc1Br` [Example 175], the IC50 lay within 100 to 1000 nM.

Take `O=C(O)CC(NC(=O)c1cc(O)n(-c2cccc(Cl)c2)n1)c1ccc(-c2cccc(F)c2)cc1` (centres unmarked) [Example 260]: the IC50 was in the range of 1000 to 30000 nM.

As for `COc1ccccc1[C@@H](NC(=O)c1cc(O)n(-c2ccccc2)n1)[C@@H](O)C(=O)O` [Example 169], the IC50 fell in the range of 1000 to 30000 nM.

Turning to `O=C(O)CC(NC(=O)c1cc(O)n(-c2ccc(F)cc2F)n1)c1cccc(Cl)c1F` (centres unmarked) [Example 192], the IC50 is 100 to 1000 nM.

Still in this assay, the particulars now being: read-out: Activity (2): Cathepsin A inhibitory activity (IC50 class).
On to `Cc1ccccc1[C@H](CC(=O)O)NC(=O)c1cc(OC(=O)N(C)C)n(-c2ccccc2F)n1` [Example 614], for which the IC50 is below 100 nM.

In the case of `COc1ccc(-c2ccccc2)cc1C(CC(=O)O)NC(=O)c1cc(O)n(-c2ccccc2)n1` (centres unmarked) [Example 549, 3-[(5-Hydroxy-1-phenyl-1H-pyrazole-3-carbonyl)-amino]-3-(4-methoxy-biphenyl-3-yl)-propionic acid], the IC50 is 1000 to 30000 nM.

Regarding `CC(C)C(C)(O)COc1cc(C(=O)N[C@@H](CC(=O)O)c2cccc(Cl)c2)nn1-c1ccccc1F` (stereo partly drawn) [Example 785, (S)-3-(3-Chloro-phenyl)-3-{[1-(2-fluoro-phenyl)-5-(2-hydroxy-2,3-dimethyl-butoxy)-1H-pyrazole-3-carbonyl]-amino}-propionic acid], the IC50 is below 100 nM.

As for `Cc1ccccc1[C@H](CC(=O)O)NC(=O)c1cc(OC[C@H]2CCC(=O)N2)n(-c2ccccc2F)n1` [Example 652], the IC50 was below 100 nM.

Consider `CCOc1cc(C(=O)N[C@@H](CC(=O)O)c2ccc(C)cc2)nn1-c1ccccc1F` [Example 716], for which the IC50 is below 100 nM.

Consider `COc1cc(C(=O)N[C@@H](CC(=O)O)c2ccccc2C)nn1C(C)(C)C` [Example 611], for which the IC50 lay within 100 to 1000 nM.

Take `Cc1c(F)cccc1C(CC(=O)O)NC(=O)c1cc(OCC2CC2)n(-c2ccccc2F)n1` (centres unmarked) [Example 684, 3-{[5-Cyclopropylmethoxy-1-(2-fluoro-phenyl)-1H-pyrazole-3-carbonyl]-amino}-3-(3-fluoro-2-methyl-phenyl)-propionic acid]: the IC50 was below 100 nM.

Take `COc1cc(C(=O)N[C@@H](CC(=O)O)c2cccc(C)c2)nn1-c1ccccc1F` [Example 670]: the IC50 was below 100 nM.

As to `CCOc1cc(C(=O)N[C@@H](CC(=O)O)c2ccc(Cl)cc2)nn1-c1ccccc1F` [Example 713], the IC50 is below 100 nM.

As for `CCOc1cc(C(=O)N[C@@H](CC(=O)O)c2ccc(C#N)cc2)nn1-c1ccccc1F` [Example 710], the IC50 lay in the range of 100 to 1000 nM.

Regarding `CCOc1cc(C(=O)N[C@@H](CC(=O)O)c2cccc(C)c2)nn1-c1ccccc1F` [Example 712], the IC50 is below 100 nM.

Take `COc1ccc(F)c(C(CC(=O)O)NC(=O)c2cc(O)n(-c3ccccc3)n2)c1` (centres unmarked) [Example 547, 3-(2-Fluoro-5-methoxy-phenyl)-3-[(5-hydroxy-1-phenyl-1H-pyrazole-3-carbonyl)-amino]-propionic acid]: the IC50 was in the range of 1000 to 30000 nM.

Consider `COc1ccc(C(CC(=O)O)NC(=O)c2cc(O)n(-c3ccccc3)n2)c(C(F)(F)F)c1` (centres unmarked) [Example 546, 3-[(5-Hydroxy-1-phenyl-1H-pyrazole-3-carbonyl)-amino]-3-(4-methoxy-2-trifluoromethyl-phenyl)-propionic acid], for which the IC50 was 100 to 1000 nM.

With `Cc1cccc([C@H](CC(=O)O)NC(=O)c2cc(OCC3CC3)n(-c3ccccc3F)n2)c1` [Example 690, (S)-3-{[5-Cyclopropylmethoxy-1-(2-fluoro-phenyl)-1H-pyrazole-3-carbonyl]-amino}-3-m-tolyl-propionic acid], the IC50 is below 100 nM.

The same assay, now with this note: read-out: Activity (2): Cathepsin A inhibitory activity, IC50 class.
In the case of `O=C(O)C[C@H](NC(=O)c1cc(O)n(-c2ccc(F)cc2)n1)c1cccc(Cl)c1` [Example 350], the IC50 was 100 to 1000 nM.

Regarding `O=C(O)CC(NC(=O)c1cc(O)n(-c2ccccc2)n1)C1CCCCC1` (centres unmarked) [Example 18], the IC50 lay in the range of 100 to 1000 nM.

With `O=C(O)C[C@H](NC(=O)c1cc(O)n(-c2ccc(F)cc2)n1)c1ccc(Cl)cc1` [Example 369], the concentration for half-maximal inhibition (IC50) fell in the range of 100 to 1000 nM.

Regarding `O=C(O)C[C@H](NC(=O)c1cc(O)n(-c2ccc(F)cc2)n1)c1cccc(Cl)c1Cl` [Example 347], the IC50 lay in the range of 100 to 1000 nM.

For the molecule `CC(C)c1ccc(C(CC(=O)O)NC(=O)c2cc(O)n(-c3ccccc3)n2)cc1` (centres unmarked) [Example 24], the IC50 was in the range of 100 to 1000 nM.

On to `O=C(O)C[C@H](NC(=O)c1cc(O)n(-c2ccc(F)cc2)n1)c1cccnc1` [Example 372], for which the IC50 lay in the range of 1000 to 30000 nM.

Take `COc1ccc([C@H](CC(=O)O)NC(=O)c2cc(O)n(-c3ccccc3)n2)cc1` [Example 374]: the concentration for half-maximal inhibition (IC50) lay within 100 to 1000 nM.

Take `Cc1cc(F)ccc1C(CC(=O)O)NC(=O)c1cc(O)n(-c2ccccc2)n1` (centres unmarked) [Example 85]: the IC50 was in the range of 100 to 1000 nM.

Regarding `N#Cc1cccc([C@H](CC(=O)O)NC(=O)c2cc(O)n(-c3cccc(F)c3)n2)c1` [Example 303], the IC50 lay in the range of 1000 to 30000 nM.

Take `O=C(O)C[C@H](NC(=O)c1cc(O)n(-c2cccc(F)c2)n1)c1ccc(Cl)cc1Cl` [Example 332]: the IC50 fell in the range of 100 to 1000 nM.

For `CC(C)(C)[C@](C)(O)COc1cc(C(=O)N[C@H](CC(=O)O)Cc2ccc(C#N)cc2)nn1-c1ccccc1F` [Example 832, (S)-4-(4-Cyano-phenyl)-3-{[1-(2-fluoro-phenyl)-5-((S)-2-hydroxy-2,3,3-trimethyl-butoxy)-1H-pyrazole-3-carbonyl]-amino}-butyric acid], the IC50 lay in the range of 1000 to 30000 nM.

Consider `Cc1ccc([C@H](CC(=O)O)NC(=O)c2cc(O)n(-c3ccccc3Cl)n2)cc1` [Example 135, (S)-3-{[1-(2-Chloro-phenyl)-5-hydroxy-1H-pyrazole-3-carbonyl]-amino}-3-p-tolyl-propionic acid], for which the IC50 is 100 to 1000 nM.

As to `O=C(O)CC(NC(=O)c1cc(O)n(-c2ccccc2Cl)n1)c1ccc(-c2ccc(F)cc2)cc1` (centres unmarked) [Example 115], the IC50 was below 100 nM.

As for `CC(C)[C@@](C)(O)COc1cc(C(=O)N[C@@H](CC(=O)O)c2ccccc2F)nn1-c1ccccc1F` [Example 862, (S)-3-(2-Fluoro-phenyl)-3-{[1-(2-fluoro-phenyl)-5-((R)-2-hydroxy-2,3-dimethyl-butoxy)-1H-pyrazole-3-carbonyl]-amino}-propionic acid], the IC50 fell in the range of 100 to 1000 nM.

As to `COc1ccc(Cl)cc1C(CC(=O)O)NC(=O)c1cc(O)n(-c2cccc(F)c2)n1` (centres unmarked) [Example 309], the IC50 lay in the range of 100 to 1000 nM.

Regarding `Cc1ccc(C)c(-n2nc(C(=O)NC(CC(=O)O)c3cccc(OC(C)(C)C)c3)cc2O)c1` (centres unmarked) [Example 7, 3-(3-tert-Butoxy-phenyl)-3-{[1-(2,5-dimethyl-phenyl)-5-hydroxy-1H-pyrazole-3-carbonyl]-amino}-propionic acid], the IC50 lay within 1000 to 30000 nM.

The same assay, now with this note: recombinant human cathepsin A 833 ng/ml, Bodipy FL-labeled bradykinin 2 μM, pH 5.5; read-out: CATH-A IC50.
With `COc1ccc(-c2ccccc2)cc1C(CC(=O)O)NC(=O)c1cc(O)n(-c2ccccc2)n1` (centres unmarked) [Example 549, 3-[(5-Hydroxy-1-phenyl-1H-pyrazole-3-carbonyl)-amino]-3-(4-methoxy-biphenyl-3-yl)-propionic acid], the IC50 was 13800 nM.

With `COc1cccc(F)c1C(CC(=O)O)NC(=O)c1cc(O)n(-c2ccccc2Cl)n1` (centres unmarked) [Example 457, 3-{[1-(2-Chloro-phenyl)-5-hydroxy-1H-pyrazole-3-carbonyl]-amino}-3-(2-fluoro-6-methoxy-phenyl)-propionic acid], the IC50 turned out to be 170 nM.

With `COc1ccc(F)c(C(CC(=O)O)NC(=O)c2cc(O)n(-c3ccccc3)n2)c1` (centres unmarked) [Example 547, 3-(2-Fluoro-5-methoxy-phenyl)-3-[(5-hydroxy-1-phenyl-1H-pyrazole-3-carbonyl)-amino]-propionic acid], the IC50 was found to be 1390 nM.

On to `Cc1ccc([C@H](CC(=O)O)NC(=O)c2cc(O)n(-c3ccccc3Cl)n2)cc1` [Example 135, (S)-3-{[1-(2-Chloro-phenyl)-5-hydroxy-1H-pyrazole-3-carbonyl]-amino}-3-p-tolyl-propionic acid], for which the IC50 came to 211 nM.

For `COc1ccc(C(CC(=O)O)NC(=O)c2cc(O)n(-c3ccccc3)n2)c(C(F)(F)F)c1` (centres unmarked) [Example 546, 3-[(5-Hydroxy-1-phenyl-1H-pyrazole-3-carbonyl)-amino]-3-(4-methoxy-2-trifluoromethyl-phenyl)-propionic acid], the IC50 came to 533 nM.

The same assay, now with this note: recombinant human cathepsin A; read-out: Activity (2): Cathepsin A inhibitory activity, IC50 class.
With `O=C(O)C[C@H](NC(=O)c1cc(O)n(-c2ccccc2F)n1)c1ccccc1Cl` [Example 519], the IC50 lay within 100 to 1000 nM.

Regarding `COc1ccc([C@H](CC(=O)O)NC(=O)c2cc(O)n(-c3cccc(F)c3)n2)cc1` [Example 427], the IC50 lay in the range of 1000 to 30000 nM.

With `N#Cc1ccc([C@H](CC(=O)O)NC(=O)c2cc(O)n(-c3cccc(Cl)c3)n2)cc1` [Example 410], the IC50 lay within 1000 to 30000 nM.

In the case of `COc1ccc([C@H](CC(=O)O)NC(=O)c2cc(O)n(-c3ccc(F)cc3)n2)cn1` [Example 438], the IC50 lay in the range of 100 to 1000 nM.

As to `O=C(O)CC(NC(=O)c1cc(O)n(-c2ccccc2F)n1)c1cc(F)ccc1C(F)(F)F` (centres unmarked) [Example 477], the IC50 fell in the range of 100 to 1000 nM.

As for `COc1cc(C(=O)N[C@@H](CC(=O)NCc2ccno2)c2ccccc2C)nn1-c1ccccc1F` [Example 934, 1-(2-Fluoro-phenyl)-5-methoxy-1H-pyrazole-3-carboxylic acid {(S)-2-[(isoxazol-5-ylmethyl)-carbamoyl]-1-o-tolyl-ethyl}-amide], the IC50 is below 100 nM.

With `COc1cccc(F)c1C(CC(=O)O)NC(=O)c1cc(O)n(-c2ccccc2Cl)n1` (centres unmarked) [Example 457, 3-{[1-(2-Chloro-phenyl)-5-hydroxy-1H-pyrazole-3-carbonyl]-amino}-3-(2-fluoro-6-methoxy-phenyl)-propionic acid], the IC50 fell in the range of 100 to 1000 nM.

For `COc1cc(C(=O)N[C@@H](CC(=O)NCC(C)(C)C)c2ccccc2C)nn1-c1ccccc1F` [Example 924, 1-(2-Fluoro-phenyl)-5-methoxy-1H-pyrazole-3-carboxylic acid [(S)-2-(2,2-dimethyl-propylcarbamoyl)-1-o-tolyl-ethyl]-amide], the half-maximal inhibitory concentration (IC50) was below 100 nM.

As to `COc1cc(C(=O)N[C@@H](CC(=O)NC(C)C)c2ccccc2C)nn1-c1ccccc1F` [Example 929], the IC50 lay in the range of 100 to 1000 nM.

On to `O=C(O)C[C@H](NC(=O)c1cc(O)n(-c2cccc(Cl)c2)n1)c1cccc(Cl)c1` [Example 415], for which the IC50 lay in the range of 100 to 1000 nM.

For the origin of these results see patent US8664257B2, “Oxygen-substituted 3-heteroaroylamino-propionic acid derivatives and their use as pharmaceuticals” (Sanofi, priority 2010, dated 2014).
